Measurements as given in patent US4945171A, “Xanthene dyes having a fused (C) benzo ring” (Molecular Probes, Inc., priority 1987, dated 1990).

Tests used:
[1] = fluorescence excitation/emission and quantum yield of benzo[c]xanthene dyes; assay type: physicochemical; settings: for FLUORESCENCE, ACID EMIT / FLUORESCENCE, ACID EXCITE: acid form; for FLUORESCENCE, BASE EMIT / FLUORESCENCE, BASE EXCITE: base form; for APPROX. QY. (quantum yield): relative to fluorescein or sulforhodamine 101
Description: Fluorescence data was obtained on a Perkin-Elmer Model 650-40 Fluorescence Spectrophotometer with a Perkin-Elmer/Hitachi 057 X-Y Recorder using a tenfold dilution of the absorbance solutions. An estimate of the quantum yield of the dyes relative to fluorescein or sulforhodamine 101 was obtained by integrating the emission spectrum of the dye excited at the same optical density as the standard.

[2] = absorption spectra (maxima and extinction coefficients) of benzo[c]xanthene dyes; assay type: physicochemical; settings: for ABSORPTION, ACID MAXIMA (second) / EXTINCTION COEFFICIENT, ACID MAXIMA (second) / ABSORPTION, ACID MAXIMA (first) / EXTINCTION COEFFICIENT, ACID MAXIMA (first): acid form; for ABSORPTION, ACID MAXIMA (second) / EXTINCTION COEFFICIENT, ACID MAXIMA (second): longer-wavelength maximum; for ABSORPTION, ACID MAXIMA (first) / EXTINCTION COEFFICIENT, ACID MAXIMA (first): shorter-wavelength maximum; for ABSORPTION, BASE MAXIMUM / EXTINCTION COEFFICIENT, BASE MAXIMUM: base form
Description: (§1) A stock solution was prepared by dissolving 7.6 mg of compound 3 in 2.00 ml methanol. The stock solution was diluted ten-fold into 40 mM pH 9.00 potassium phosphate buffer. Absorbance solutions were prepared by further diluting 25 μl of the aqueous stock solution to 2.025 ml with 40 mM potassium phosphate buffers of the appropriate pH.

[3] = determination of the pKa for the benzo[c]xanthene indicators from plot of absorbance ratios versus pH; settings: 40 mM potassium phosphate buffers
Description: as §1

physchem = settings: 40 mm potassium phosphate buffer
Description: as §1

cells = settings: cited from earlier work
[4] = potassium phosphate buffer, pH 7.0

| Compound | FLUORESCENCE, ACID EMIT [1] | FLUORESCENCE, ACID EXCITE [1] | FLUORESCENCE, BASE EMIT [1] | FLUORESCENCE, BASE EXCITE [1] | APPROX. QY. (quantum yield) [1] | ABSORPTION, ACID MAXIMA (second) [2] | EXTINCTION COEFFICIENT, ACID MAXIMA (second) [2] | ABSORPTION, ACID MAXIMA (first) [2] | EXTINCTION COEFFICIENT, ACID MAXIMA (first) [2] | ABSORPTION, BASE MAXIMUM [2] | EXTINCTION COEFFICIENT, BASE MAXIMUM [2] | pKa [3] | pKa (physchem) | Absorbance maximum (first) [2, 4] | Absorbance maximum (second) [2, 4] | extinction coefficient (first maximum) [2, 4] | extinction coefficient (second maximum) [2, 4] | membrane permeability (cells) | retention by cells (cells; due to its high membrane permeability) |
| --- | --- | --- | --- | --- | --- | --- | --- | --- | --- | --- | --- | --- | --- | --- | --- | --- | --- | --- | --- |
| 5'-(and-6')-carboxy-3,10-dihydroxy-spiro[7H-benzo[c]xanthene-7,1'(3'H)-isobenzofuran]-3'-one [Compound 2] | 543 NM | 514 NM | 623 NM | 543 NM | ~0.35 | 508 NM | 28.5 10^3 cm^-1 M^-1 | 479 NM | 22.8 10^3 cm^-1 M^-1 | 537 NM | 44.4 10^3 cm^-1 M^-1 | 7.80 |  |  |  |  |  |  |  |
| O=C1OC2(c3ccc(O)cc3Oc3c2ccc2cc(O)ccc32)c2ccccc21 (centres unmarked) [Compound 1, 3,10-dihydroxy-spiro[7H-benzo[c]xanthen-7,1'(3'H)-isobenzofuran]-3'-one] | 539 NM | 513 NM | 618 NM | 540 NM | ~0.34 |  | 28.2 10^3 cm^-1 M^-1 | 480 NM | 24.8 10^3 cm^-1 M^-1 | 537 NM | 49.7 10^3 cm^-1 M^-1 |  | 7.85 |  |  |  |  |  |  |
| O=C(O)c1ccc2c(c1)C1(OC2=O)c2cc(Cl)c(O)cc2Oc2c1ccc1cc(O)ccc21 (centres unmarked) [Compound 3] | 546 NM | 517 NM | 630 NM | 552 NM | ~0.48 | 514 NM | 25.3 10^3 cm^-1 M^-1 | 485 NM | 20.5 10^3 cm^-1 M^-1 | 547 NM | 40.4 10^3 cm^-1 M^-1 |  | 7.65 |  |  |  |  |  |  |
| CN(C)c1ccc2c(c1)Oc1c(ccc3cc(O)ccc13)C21OC(=O)c2ccccc21 (centres unmarked) [Compound 5] | 585 NM | 549 NM | 632 NM | 582 NM | ~0.19 | 544 NM | 21.6 10^3 cm^-1 M^-1 | 515 NM | 17.7 10^3 cm^-1 M^-1 | 573 NM | 44.1 10^3 cm^-1 M^-1 |  | 7.6 |  |  |  |  |  |  |
| CCN(CC)c1ccc2c(c1)Oc1c(ccc3cc(O)ccc13)C21OC(=O)c2ccccc21 (centres unmarked) [Compound 6] | 583 NM | 557 NM | 632 NM | 582 NM | ~0.23 | 550 NM | 24.4 10^3 cm^-1 M^-1 | 518 NM | 20.5 10^3 cm^-1 M^-1 | 577 NM | 46.4 10^3 cm^-1 M^-1 |  | 7.5 |  |  |  |  |  |  |
| CCNc1cc2c(cc1C)C1(OC(=O)c3ccccc31)c1ccc3cc(O)ccc3c1O2 (centres unmarked) [Compound 7] | 552 NM | 525 NM | 629 NM | 558 NM | ~0.38 | 522 NM |  | 495 NM |  | 552 NM |  |  | 7.7 |  |  |  |  |  |  |
| CN(C)c1ccc2c(c1)Oc1c(ccc3cc(O)ccc13)C21OC(=O)c2cc(C(=O)O)ccc21 (centres unmarked) [Compound 8, 5'-carboxy-10-dimethylamino-3-hydroxy-spiro[7H-benzo[c]xanthene-7,1'(3'H)-isobenzofuran]-3'-one] | 587 NM | 556 NM | 636 NM | 581 NM | ~0.20 | 548 NM | 25.7 10^3 cm^-1 M^-1 | 518 NM | 23.2 10^3 cm^-1 M^-1 | 574 NM | 44.9 10^3 cm^-1 M^-1 |  | 7.5 |  |  |  |  |  |  |
| CCN(CC)c1ccc2c(c1)Oc1c(ccc3cc(O)ccc13)C21OC(=O)c2ccc(C(=O)O)cc21 (centres unmarked) [Compound 9] | 583 NM | 558 NM | 633 NM | 582 NM | ~0.24 | 550 NM | 29.7 10^3 cm^-1 M^-1 | 517 NM | 26.2 10^3 cm^-1 M^-1 | 577 NM | 51.5 10^3 cm^-1 M^-1 |  | 7.75 |  |  |  |  |  |  |
| O=C(O)c1ccc2c(c1)C(=O)OC21c2cc3c4c(c2Oc2c1ccc1cc(O)ccc21)CCCN4CCC3 (centres unmarked) [Compound 11, [h,i]julolidino-spiro[7H-benzo[c]xanthen-7,1'(3'H)-isobenzofuran]-3'-one] | 599 NM | 530 NM | 630 NM | 590 NM | ~0.35 | 569 NM | 19.4 10^3 cm^-1 M^-1 | 529 NM | 22.2 10^3 cm^-1 M^-1 | 587 NM | 38.7 10^3 cm^-1 M^-1 |  | 7.9 |  |  |  |  |  |  |
| CC(=O)Oc1ccc2c3c(ccc2c1)C1(OC(=O)c2cc(C(=O)O)ccc21)c1ccc(N(C)C)cc1O3 (centres unmarked) [Compound 14, 3-acetoxy-5'-carboxy-10-dimethylamino-spiro[7H-benzo[c]xanthene-7,1'(3'H)-isobenzofuran]-3'-one] |  |  |  |  |  |  |  |  |  |  |  |  |  | 511 nm | 540 nm | 24,100 cm^-1 M^-1 | 21,700 cm^-1 M^-1 |  |  |
| N#Cc1c(O)ccc(O)c1C#N [Dihydroxyphthalonitrile] |  |  |  |  |  |  |  |  |  |  |  |  |  |  |  |  |  | high membrane permeability | not well retained by cells |
